pKi: −log10 of the molar value.

What is called pKi is the Ki on a negative log10 scale, so that one unit is a factor of ten.

The nature of data set [1]: Pharmacokinetic profile (plasma) and brain penetration assay. Format: in vivo, mouse. The settings on record: mice, intraperitoneal injection, plasma and brain by LC-MS/MS. The procedure:
PD102807 and Compounds A and B were intraperitoneally injected into mice. Blood was collected at each time point, and transferred tubes containing anticoagulant were centrifuged to obtain plasma. Brain samples were collected each time point and then quick frozen in liquid nitrogen and kept at −75±15° C. Brain samples were homogenized. Concentrations of PD102807 and Compound A and B in the plasma and brain samples were analyzed using the LC-MS/MS method. […] Compound G was intraperitoneally injected into mice. Blood was collected at each time point, and transferred tubes containing anticoagulant were centrifuged to obtain plasma. Brain samples were collected each time point and then quick frozen in liquid nitrogen and kept at −75±15° C. Brain samples were homogenized. Concentrations of Compound G in the plasma and brain samples were analyzed using the LC-MS/MS method.

In data set [2] the target is T1, human recombinant CHRM1 receptor (Homo sapiens, UniProt P11229).
T1 construct: expressed in transfected cells; host or cells: CHO cells (membranes)
T1 sequence (P11229 1-460): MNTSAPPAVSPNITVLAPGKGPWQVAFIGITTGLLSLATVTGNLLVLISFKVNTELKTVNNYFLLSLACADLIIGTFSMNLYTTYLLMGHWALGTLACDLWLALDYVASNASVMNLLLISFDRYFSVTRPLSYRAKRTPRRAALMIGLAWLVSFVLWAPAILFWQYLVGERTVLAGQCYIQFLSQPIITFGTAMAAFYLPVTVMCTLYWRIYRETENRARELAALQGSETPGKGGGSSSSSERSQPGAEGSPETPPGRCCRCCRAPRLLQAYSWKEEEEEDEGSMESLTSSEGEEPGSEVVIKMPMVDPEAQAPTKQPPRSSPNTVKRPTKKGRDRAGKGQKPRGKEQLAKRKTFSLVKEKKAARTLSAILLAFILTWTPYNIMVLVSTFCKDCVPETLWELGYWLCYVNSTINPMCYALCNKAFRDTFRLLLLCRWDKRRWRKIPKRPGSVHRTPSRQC
Kind of data set: Radioligand binding assay, CHRM1. The conditions noted are these: [3H]pirenzepine (2 nM), CHO cell membranes, 60 minutes at room temperature; read-out: Ki M1. The procedure:
(§1) PD102807 and Compounds A-K at concentrations of 1×10^−9 M, 1×10^−8 M, 1×10^−7 M, 1×10^−6 M, and 1×10^−5 M were tested in standard binding assays with radioligands and cell membranes with receptors. Compound binding was calculated as a percent inhibition of the binding of a radioactively labeled ligand specific for each target, and the Ki values were determined. For CHRM1, the binding assay was performed using [^3H]pirenzepine (2 nM) as a radioligand and membranes of CHO cells with human recombinant CHRM1 receptor. The incubation time was 60 minutes at room temperature. For CHRM2, the binding assay was performed using [^3H]AF-DX 384 (2 nM) as a radioligand and membranes of CHO cells with human recombinant CHRM2 receptor. The incubation time was also 60 minutes at room temperature. For CHRM3, the binding assay was performed using [^3H]4-DAMP (0.2 nM) as a radioligand and membranes of CHO cells with human recombinant CHRM3 receptor. The incubation time was also 60 minutes at room temperature. For CHRM4, the binding assay was performed using [^3H]4-DAMP (0.2 nM) as a radioligand and membranes of CHO cells with human recombinant CHRM4 receptor. The incubation time was also 60 minutes at room temperature. For CHRM5, the binding assay was performed using [^3H]4-DAMP (0.3 nM) as a radioligand and membranes of CHO cells with human recombinant CHRM5 receptor. The incubation time was also 60 minutes at room temperature.

A further data set concerns the target T2, CHRM4 (Homo sapiens, UniProt P08173).
T2 sequence (P08173 1-479): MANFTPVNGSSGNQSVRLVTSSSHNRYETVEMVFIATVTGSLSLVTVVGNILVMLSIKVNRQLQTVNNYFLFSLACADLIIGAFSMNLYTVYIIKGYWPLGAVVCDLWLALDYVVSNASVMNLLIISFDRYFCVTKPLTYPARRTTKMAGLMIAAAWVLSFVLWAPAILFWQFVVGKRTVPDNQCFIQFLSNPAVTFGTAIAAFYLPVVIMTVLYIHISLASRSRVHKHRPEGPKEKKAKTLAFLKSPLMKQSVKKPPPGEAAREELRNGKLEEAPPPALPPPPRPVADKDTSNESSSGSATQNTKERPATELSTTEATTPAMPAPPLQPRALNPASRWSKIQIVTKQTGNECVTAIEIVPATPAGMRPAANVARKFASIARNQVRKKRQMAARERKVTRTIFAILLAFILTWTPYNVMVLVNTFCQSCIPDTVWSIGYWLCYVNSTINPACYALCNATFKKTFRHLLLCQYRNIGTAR
The experiment in a line: Radioligand binding assay, CHRM4. The arrangement: expressed in transfected cells; host or cells: CHO cells (membranes). The conditions noted are these: [3H]4-DAMP (0.2 nM), CHO cell membranes, 60 minutes at room temperature; read-out: Ki M4. The procedure: as §1

Data set [3] concerns the target T3, human recombinant CHRM2 receptor (Homo sapiens, UniProt P08172).
T3 construct: expressed in transfected cells; host or cells: CHO cells (membranes)
T3 sequence (P08172 1-466): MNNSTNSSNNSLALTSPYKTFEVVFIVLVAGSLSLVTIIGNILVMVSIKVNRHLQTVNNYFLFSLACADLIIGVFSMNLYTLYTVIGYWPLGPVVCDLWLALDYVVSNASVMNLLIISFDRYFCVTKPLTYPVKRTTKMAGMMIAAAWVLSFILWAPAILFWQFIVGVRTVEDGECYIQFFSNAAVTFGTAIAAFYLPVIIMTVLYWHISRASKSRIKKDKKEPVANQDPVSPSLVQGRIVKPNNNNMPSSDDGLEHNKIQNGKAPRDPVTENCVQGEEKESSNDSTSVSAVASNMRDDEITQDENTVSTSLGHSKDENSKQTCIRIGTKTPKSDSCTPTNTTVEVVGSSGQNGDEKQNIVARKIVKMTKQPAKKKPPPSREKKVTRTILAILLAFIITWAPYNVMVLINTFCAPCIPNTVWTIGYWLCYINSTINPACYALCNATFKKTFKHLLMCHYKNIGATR
Kind of data set: Radioligand binding assay, CHRM2. The conditions noted are these: [3H]AF-DX 384 (2 nM), CHO cell membranes, 60 minutes at room temperature; read-out: Ki M2. As for the experimental part:
as §1

Data set [4] deals with T4, human recombinant CHRM3 receptor (Homo sapiens, UniProt P20309).
T4 construct: expressed in transfected cells; host or cells: CHO cells (membranes)
The experiment in a line: Radioligand binding assay, CHRM3. The settings on record: [3H]4-DAMP (0.2 nM), CHO cell membranes, 60 minutes at room temperature; read-out: Ki M3. As for the experimental part: as §1

Data set [5] relates to Mouse BFU-Es. Kind of data set: Primary mouse BFU-E culture assay (cell expansion). Format: cell-based. As for the experimental part: (§2) Primary mouse BFU-Es were isolated from mouse embryonic day 14.5 (E14.5) fetal liver and cultured in StemSpan serum-free expansion medium, and the numbers of cells formed were counted during culture. BFU-Es were infected with either viruses encoding control shRNA or viruses encoding shRNAs targeting Chrm4, and numbers of GFP+ cells formed during culture were counted. DMSO or 25 mg/kg oxyphenonium bromide was intraperitoneally injected into the hemolysis mouse model, Mx1-cre Srsf2 P95H/WT MDS mouse model, and aging mouse model. Complete blood count (CBC) was performed after compound injection. CREB ChIP-Seq was performed on BFU-Es after culture with 100 μM oxyphenonium bromide for 45 minutes. RNA-Seq was performed in BFU-Es after being cultured with DMSO or oxyphenonium bromide for 3 days.
BFU-Es were isolated from mouse embryonic day 14.5 fetal liver using fluorescence-activated cell sorting (FACS) method previously described (Flygare et al., Blood 117, 3435-3444 (2011)). BFU-Es were cultured in StemSpan SFEM II medium containing rmSCF (100 ng/ml), EPO (2 U/ml), rmIGF-1 (40 ng/ml), dexamethasone (1 nmol/ml or 10 nmol/ml), oxyphenonium bromide ([…]), and orphenadrine citrate (1 μmol/ml).
BFU-Es were isolated from mouse embryonic day 14.5 fetal liver using fluorescence-activated cell sorting (FACS) method. BFU-Es were cultured in StemSpan SFEM II medium containing rmSCF (100 ng/ml), EPO (2 U/ml), rmIGF-1 (40 ng/ml), dexamethasone (1 nM), together with either DMSO, PCS1055 (5 nM), or PD102807 (3 nM). Numbers of cell formed were counted during in vitro culture.
FIGS. 7 and 8 show the results of the primary BFU-E culture assay. […] Highly purified BFU-Es were isolated as lin-Ter-119-CD16/CD32-Sca-1-CD41-c-Kit+CD71/Cd24a^10% low population using the fluorescence-activated cell sorting (FACS) method. BFU-Es were cultured in medium containing rmSCF, EPO, and rmIGF-1, in the presence of PD102807 or Compounds A-K at indicated concentrations.

Data set [6] concerns Mouse BFU-Es. The experiment in a line: BFU-E colony formation assay. The conditions noted are these: Day 6 cultured BFU-Es plated on methylcellulose, colonies counted 9 days later. In kind it is cell-based.
Data set [7] deals with phosphorylated CREB in BFU-Es. The experiment in a line: Phospho-CREB immunofluorescence. Format: cell-based, mouse. The conditions noted are these: 100 μM oxyphenonium, 45 to 60 min. The procedure:
Freshly isolated BFU-Es were serum starved for 1 hour and treated with either DMSO or 100 μM oxyphenonium for 45 to 60 min. 10^4 cells were collected on Poly L-Lysine coated slides using cytospin. Cells were fixed with 2% paraformaldehyde for 15 min, followed with permeabilization using 0.1% Triton X-100 for 15 min and with 2% BSA solution block for 30 min. Cells were incubated with phospho-CREB antibody (phospho […], Abeam, ab32096, 1:250) in 2% BSA for 1 hour and then incubated with FITC conjugated goat anti-mouse secondary antibody (Abcam, ab97022, 1:500) and FITC conjugated goat anti-rabbit secondary antibody (Abcam, ab97050, 1:500) in 2% BSA solution for 30 min. Cells were then incubated with DAPI for 5 min and then mounted with mounting solution.

In data set [8] the test system is Human CD34+ hematopoietic stem and progenitor cells. The experiment in a line: Human CD34+ cell culture and counting. In kind it is cell-based. The settings on record: human CD34+ HSPC culture, oxyphenonium bromide (200 μM). The procedure:
Human CD34+ hematopoietic stem and progenitor cells (HSPCs) were cultured in StemSpan™ SFEM medium containing rhSCF (20 ng/ml), rhIL-3 (5 ng/ml) and EPO (1 U/ml) with various concentrations of dexamethasone and oxyphenonium. Total numbers of cells were counted using a flow-cytometer. For colony formation assay, day 8 cultured cells were plated into methylcellulose medium MethoCult™ H4034 Optimum and BFU-E colonies were counted after 13 days.

The subject of data set [9] is Mouse BFU-Es. The experiment in a line: Ter119 antibody staining, flow cytometry. Format: cell-based. The conditions noted are these: with or without oxyphenonium bromide, after 12 days of culture.
For data set [10], the system named is hemolysis, MDS, and aging mouse models. Kind of data set: Hemolysis, MDS and aging anemia mouse models (oxyphenonium bromide). In kind it is in vivo. The settings on record: 25 mg/kg intraperitoneally. As for the experimental part: as §2
4-6 weeks old C57bl/6 mice were intraperitoneally injected with either control DMSO or compound every day for 3 days. On day 4, mice were intraperitoneally injected with 60 mg/kg PHZ. Mice were then intraperitoneally injected with either compound or control DMSO every day for another 3 days. Peripheral blood samples were collected retro-orbitally using heparinized capillary tubes in blood collection tubes with K2-EDTA. CBC was performed using Hemavet® 950. […]

T4 sequence (P20309 whole entry): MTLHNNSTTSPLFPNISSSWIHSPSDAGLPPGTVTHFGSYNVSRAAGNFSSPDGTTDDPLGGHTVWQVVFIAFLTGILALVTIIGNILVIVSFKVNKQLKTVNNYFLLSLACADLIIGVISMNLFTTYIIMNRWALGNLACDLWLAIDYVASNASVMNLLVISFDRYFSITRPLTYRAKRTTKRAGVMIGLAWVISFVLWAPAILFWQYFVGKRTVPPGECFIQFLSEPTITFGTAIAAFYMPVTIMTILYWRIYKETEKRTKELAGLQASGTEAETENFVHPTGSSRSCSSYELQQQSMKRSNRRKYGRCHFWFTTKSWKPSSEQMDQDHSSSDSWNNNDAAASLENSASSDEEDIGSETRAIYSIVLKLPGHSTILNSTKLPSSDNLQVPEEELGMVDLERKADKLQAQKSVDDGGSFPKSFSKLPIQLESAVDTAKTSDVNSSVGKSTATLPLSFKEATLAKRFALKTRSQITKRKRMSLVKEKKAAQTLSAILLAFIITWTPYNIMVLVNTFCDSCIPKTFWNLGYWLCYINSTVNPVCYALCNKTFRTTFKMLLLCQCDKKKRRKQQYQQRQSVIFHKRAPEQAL

In the case of `CCOC(=O)c1c(C)n(C)c2ccc(OC)c(C[N+]3(C)CCc4cc(OC)ccc4C3)c12.[I-]` (stereo not drawn) [Compound G, 2-((3-(ethoxycarbonyl)-5-methoxy-1,2-dimethyl-1H-indol-4-yl)methyl)-6-methoxy-2-methyl-1,2,3,4-tetrahydroisoquinolin-2-ium Iodide], the “brain penetration in comparison to PD102807” value in [1] is listed as “reduced brain penetration”. Further, the pKi in [2] is 5.36; at CHRM4 it was 5.82; in data set [3], 6.12; in data set [4], 6.40.
In the case of `CC[N+](C)(CC)CCOC(=O)C(O)(c1ccccc1)C1CCCCC1` (stereo not drawn) [oxyphenonium bromide], the “production of more erythrocytes from BFU-E” value in the data set on Mouse BFU-Es [5] (100 μM oxyphenonium bromide, vs culture without compound) was about 10 fold. Besides, the “BFU-E expansion (test of GPCR agonists and antagonists)” value in the data set on Mouse BFU-Es [5] (mouse BFU-E culture) is given as “triggered BFU-E expansion”. Also, the “formation of BFU-E colonies” value in the data set on Mouse BFU-Es [6] was about 2 fold. The “nuclear localization of phosphorylated CREB” value in [7] is on record as “increase in nuclear localization”. For the same compound, in data set [8], the “expansion of erythroid cells” value is given as 2 to 4 fold. In addition, in the data set on Mouse BFU-Es [9], the “percentage of Ter119+ differentiated cells” value is “no difference”. Also, the “correction of anemia in vivo” value in data set [10] is listed as “corrects anemia in vivo”.

These data come from patent publication US12497411B2, “Muscarinic acetylcholine receptor subtype 4 antagonists in the treatment of anemia” (COLD SPRING HARBOR LABORATORY, priority 2019, dated 2025).
